According to patent US8623857B2, “N-phenyl imidazole carboxamide inhibitors of 3-phosphoinositide-dependent protein kinase-1” (Merck Sharp & Dohme Corp., priority 2010, dated 2014):
pIC50: −log10 of the molar value.

Biological target: T1, recombinant human PDK1 (Homo sapiens, UniProt O15530)
T1 construct: containing amino acids 51-556 of the human PDK1 enzyme; made in house; host or cells: Sf9 insect cells
T1 sequence (O15530 51-556): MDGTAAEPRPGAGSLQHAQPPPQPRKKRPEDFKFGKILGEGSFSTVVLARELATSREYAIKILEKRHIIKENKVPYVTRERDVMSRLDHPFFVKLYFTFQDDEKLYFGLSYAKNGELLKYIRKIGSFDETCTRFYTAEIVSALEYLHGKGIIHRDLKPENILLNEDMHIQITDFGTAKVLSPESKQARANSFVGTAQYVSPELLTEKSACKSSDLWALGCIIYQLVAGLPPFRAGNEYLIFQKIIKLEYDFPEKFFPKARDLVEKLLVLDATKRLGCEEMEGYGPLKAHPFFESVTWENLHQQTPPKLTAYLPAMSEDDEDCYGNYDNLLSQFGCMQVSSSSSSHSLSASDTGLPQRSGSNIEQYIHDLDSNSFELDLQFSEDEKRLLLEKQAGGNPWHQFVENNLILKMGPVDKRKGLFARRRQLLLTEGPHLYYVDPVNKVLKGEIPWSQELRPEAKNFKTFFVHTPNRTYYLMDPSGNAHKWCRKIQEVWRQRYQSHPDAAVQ
Experiment: PDK1 IMAP fluorescence polarization assay (inhibition of peptide substrate phosphorylation)
Format: biochemical

[1] = Table 6, 10 nM PDK1 enzyme, 100 nM peptide substrate, 100 nM PIFtide, 2.5 uM ATP, 1.5 hours

Row | pIC50 (Table 10, compounds 97-132) | pIC50 [1] | SMILES
1 | 7.30 to 9.00 | – | CNc1nc(-c2c[nH]c(C(=O)Nc3cccc(F)c3N3CCC(CN)CC3)n2)cc(N2CC[C@@](OC)(C(=O)NC3CCCCC3)C2)n1 [Compound 129, (S)—N-(2-(4-(aminomethyl)piperidin-1-yl)-3-fluorophenyl)-4-(6-(3-(cyclohexylcarbamoyl)-3-methoxypyrrolidin-1-yl)-2-(methylamino)pyrimidin-4-yl)-1H-imidazole-2-carboxamide]
2 | 7.30 to 9.00 | – | CNc1nc(-c2c[nH]c(C(=O)Nc3cccc(F)c3N3CCO[C@H](CN)C3)n2)cc(N2CC(C(=O)NC3CCCCC3)CCC2C)n1 (mixture of isomers) [Compound 111, 1-(6-(2-(2-((R)-2-(aminomethyl)morpholino)-3-fluorophenylcarbamoyl)-1H-imidazol-4-yl)-2-(methylamino)pyrimidin-4-yl)-N-cyclohexyl-6-methylpiperidine-3-carboxamide]
3 | 7.30 to 9.00 | – | CNc1nc(-c2c[nH]c(C(=O)Nc3cccc(F)c3N3CCC(CN)CC3)n2)cc(N2CC[C@@](COC)(C(=O)NC3CC3)C2)n1 [Compound 131, (R)—N-(2-(4-(aminomethyl)piperidin-1-yl)-3-fluorophenyl)-4-(6-(3-(cyclopropylcarbamoyl)-3-(methoxymethyl)pyrrolidin-1-yl)-2-(methylamino)pyrimidin-4-yl)-1H-imidazole-2-carboxamide]
4 | – | 7.30 to 9.00 | CNc1cc(-c2c[nH]c(C(=O)Nc3cccc(F)c3N3CCC(CN)CC3)n2)ccn1 [Compound 32, N-[2-[4-(aminomethyl)-1-piperidinyl]-3-fluorophenyl]-4-[2-(methylamino)-4-pyridinyl]-1H-imidazole-2-carboxamide]
5 | – | 7.30 to 9.00 | Cc1cc(-c2c[nH]c(C(=O)Nc3cccc(F)c3N3CCC(CN)CC3)n2)nc(N)n1 [Compound 47, N-[2-[4-(aminomethyl)-1-piperidinyl]-3-fluorophenyl]-4-(2-amino-6-methyl-4-pyrimidinyl)-1H-imidazole-2-carboxamide]
6 | – | 6.60 to 7.29 | N[C@@H]1CCCN(c2c(F)cccc2NC(=O)c2nc(-c3cnn(Cc4cccs4)c3)c[nH]2)C1 [Compound 5, N-[2-(3(R)-amino-1-piperidinyl)-3-fluorophenyl]-4-[1-(2-thienylmethyl)-1H-pyrazol-4-yl]-1H-imidazole-2-carboxamide]
7 | – | 6.60 to 7.29 | Cc1cc(-c2c[nH]c(C(=O)Nc3cccc(F)c3N3CCC4CCNC4C3)n2)ccn1 (stereo not drawn) [Compound 43, N-[3-fluoro-2-(octahydro-6h-pyrrolo[2,3-c]pyridin-6-yl)phenyl]-4-(2-methyl-4-pyridinyl)-1H-imidazole-2-carboxamide]
8 | – | 5.30 to 6.00 | Cc1cc(-c2c[nH]c(C(=O)Nc3cccc(F)c3N3CCC(C(=O)N4CC[C@H](F)C4)CC3)n2)ccn1 [Compound 64, N-[3-fluoro-2-[4-[(3(S)-fluoro-1-pyrrolidinyl)carbonyl]-1-piperidinyl]phenyl]-4-(2-methyl-4-pyridinyl)-1H-imidazole-2-carboxamide]
9 | – | 6.00 to 6.60 | N[C@@H]1CCCN(c2c(F)cccc2NC(=O)c2nc(-c3ccc(F)cc3F)c[nH]2)C1 [Compound 38, N-[2-(3(R)-amino-1-piperidinyl)-3-fluorophenyl]-4-(2,4-difluorophenyl)-1H-imidazole-2-carboxamide]
10 | 7.30 to 9.00 | – | CNc1nc(-c2c[nH]c(C(=O)Nc3cccc(F)c3N3CCOCC3)n2)cc(N2CC(C(=O)NC3CCCCC3)CCC2C)n1 (racemic) [Compound 109, N-cyclohexyl-1-(6-(2-(3-fluoro-2-morpholinophenylcarbamoyl)-1H-imidazol-4-yl)-2-(methylamino)pyrimidin-4-yl)-6-methylpiperidine-3-carboxamide]
11 | – | 6.00 to 6.60 | Cn1cc(-c2c[nH]c(C(=O)Nc3cccc(F)c3N3CCC[C@@H](N)C3)n2)cn1 [Compound 14, N-[2-(3(R)-amino-1-piperidinyl)-3-fluorophenyl]-4-(1-methyl-1H-pyrazol-4-yl)-1H-imidazole-2-carboxamide]
12 | – | 6.60 to 7.29 | Cc1cc(-c2c[nH]c(C(=O)Nc3cccc(F)c3N3CCC(C(=O)N4CC5CNC(C5)C4)CC3)n2)ccn1 (stereo not drawn) [Compound 91, N-[2-[4-(3,6-diazabicyclo[3.2.1]oct-3-ylcarbonyl)-1-piperidinyl]-3-fluorophenyl]-4-(2-methyl-4-pyridinyl)-1H-imidazole-2-carboxamide]
13 | – | 6.00 to 6.60 | N[C@@H]1CCCN(c2c(F)cccc2NC(=O)c2nc(-c3ccncc3)c[nH]2)C1 [Compound 10, N-[2-(3(R)-amino-1-piperidinyl)-3-fluorophenyl]-4-(4-pyridinyl)-1H-imidazole-2-carboxamide]
14 | – | 5.30 to 6.00 | Cc1cc(-c2c[nH]c(C(=O)Nc3cccc(F)c3N3CCC(C(=O)N4CCC(O)(c5ccccn5)CC4)CC3)n2)ccn1 [Compound 96, N-[3-fluoro-2-[4-[[4-hydroxy-4-(2-pyridinyl)-1-piperidinyl]carbonyl]-1-piperidinyl]phenyl]-4-(2-methyl-4-pyridinyl)-1H-imidazole-2-carboxamide]
15 | 7.30 to 9.00 | – | CNc1nc(-c2c[nH]c(C(=O)Nc3cccc(F)c3N3CCC(CN)CC3)n2)cc(N2CC[C@@](COC)(C(=O)NCc3ccccc3)C2)n1 [Compound 130, (R)—N-(2-(4-(aminomethyl)piperidin-1-yl)-3-fluorophenyl)-4-(6-(3-(benzylcarbamoyl)-3-(methoxymethyl)pyrrolidin-1-yl)-2-(methylamino)pyrimidin-4-yl)-1H-imidazole-2-carboxamide]
16 | – | 6.60 to 7.29 | NCC1CCN(c2c(F)cccc2NC(=O)c2nc(-c3cccc(CCO)c3)c[nH]2)CC1 [Compound 41, N-[2-[4-(aminomethyl)-1-piperidinyl]-3-fluorophenyl]-4-[3-(2-hydroxyethyl)phenyl]-1H-imidazole-2-carboxamide]
17 | 7.30 to 9.00 | – | CNc1nc(-c2c[nH]c(C(=O)Nc3cccc(F)c3N3CCOC[C@H]3C)n2)cc(N2CC(C(=O)NC3CCCCC3)CCC2C)n1 (mixture of isomers) [Compound 122, N-cyclohexyl-1-(6-(2-(3-fluoro-2-((R)-3-methylmorpholino)phenylcarbamoyl)-1H-imidazol-4-yl)-2-(methylamino)pyrimidin-4-yl)-6-methylpiperidine-3-carboxamide]
18 | 7.30 to 9.00 | – | NCC1CCN(c2c(F)cccc2NC(=O)c2nc(-c3cc(N4CCOCC4)nc(N)n3)c[nH]2)CC1 [Compound 99, 4-(2-amino-6-morpholinopyrimidin-4-yl)-N-(2-(4-(aminomethyl)piperidin-1-yl)-3-fluorophenyl)-1H-imidazole-2-carboxamide]
19 | – | 6.00 to 6.60 | Cc1cc(-c2c[nH]c(C(=O)Nc3cccc(F)c3N3CCC(C(=O)N4CCOCC4CO)CC3)n2)ccn1 (stereo not drawn) [Compound 80, N-[3-fluoro-2-[4-[[3-(hydroxymethyl)-4-morpholinyl]carbonyl]-1-piperidinyl]phenyl]-4-(2-methyl-4-pyridinyl)-1H-imidazole-2-carboxamide]
20 | – | 6.60 to 7.29 | Cc1cc(-c2c[nH]c(C(=O)Nc3cccc(F)c3N3CCC4(CCCNC4)CC3)n2)ccn1 [Compound 46, N-[2-(2,9-diazaspiro[5,5]undec-9-yl)-3-fluorophenyl]-4-(2-methyl-4-pyridinyl)-1H-imidazole-2-carboxamide]
21 | – | 5.30 to 6.00 | CNC(=O)C1CCN(c2c(F)cccc2NC(=O)c2nc(-c3ccnc(C)c3)c[nH]2)CC1 [Compound 59, 1-[2-fluoro-6-[[[4-(2-methyl-4-pyridinyl)-1H-imidazol-2-yl]carbonyl]amino]phenyl]-N-methyl-4-piperidinecarboxamide]
22 | 7.30 to 9.00 | – | CNc1nc(-c2c[nH]c(C(=O)Nc3cccc(F)c3N3CCC4(CC3)CNC4)n2)cc(N2CC(C(=O)NC3CCCCC3)CCC2C)n1 (racemic) [Compound 118, N-cyclohexyl-1-(6-(2-(3-fluoro-2-(2,7-diazaspiro[3.5]nonan-7-yl)phenylcarbamoyl)-1H-imidazol-4-yl)-2-(methylamino)pyrimidin-4-yl)-6-methylpiperidine-3-carboxamide]
23 | – | 7.30 to 9.00 | Cc1cc(-c2c[nH]c(C(=O)Nc3cccc(F)c3N3CCC(CN)CC3)n2)ccn1 [Compound 18, N-[2-[4-(aminomethyl)-1-piperidinyl]-3-fluorophenyl]-4-(2-methyl-4-pyridinyl)-1H-imidazole-2-carboxamide]
24 | – | 5.30 to 6.00 | N[C@@H]1CCCN(c2c(F)cccc2NC(=O)c2nc(-c3cncc(C(F)(F)F)c3)c[nH]2)C1 [Compound 9, N-[2-(3(R)-amino-1-piperidinyl)-3-fluorophenyl]-4-[5-(trifluoromethyl)-3-pyridinyl]-1H-imidazole-2-carboxamide]
25 | – | 6.60 to 7.29 | N[C@@H]1CCCN(c2c(F)cccc2NC(=O)c2nc(-c3ccnc(C(F)(F)F)c3)c[nH]2)C1 [Compound 19, N-[2-(3(R)-amino-1-piperidinyl)-3-fluorophenyl]-4-[2-(trifluoromethyl)-4-pyridinyl]-1H-imidazole-2-carboxamide]
26 | 6.60 to 7.29 | – | CNc1nc(-c2c[nH]c(C(=O)Nc3ccccc3N3CCNCC3)n2)cc(N2C[C@@H](C(=O)NC3CCCCC3)CC[C@@H]2C)n1 (racemic) [Compound 104, N-cyclohexyl-6-methyl-1-(2-(methylamino)-6-(2-(2-(piperazin-1-yl)phenylcarbamoyl)-1H-imidazol-4-yl)pyrimidin-4-yl)piperidine-3-carboxamide]
27 | – | 7.30 to 9.00 | NCC1CCN(c2c(F)cccc2NC(=O)c2nc(-c3cc(C(N)=O)nc(O)n3)c[nH]2)CC1 [Compound 68, 6-[2-[[[2-[4-(aminomethyl)-1-piperidinyl]-3-fluorophenyl]amino]carbonyl]-1H-imidazol-4-yl]-2-hydroxy-4-pyrimidinecarboxamide]
